# “Also recorded” adds a separate entry of the source.
# What was measured:
# [1] = tested on: neurons differentiated from trisomy 21-iPSC; experiment: Aβ aggregation, phosphorylated Tau and miRNA in neurons differentiated from Ts21-iPSC; format: cell-based, human
# Text: The neurons differentiated from the induced pluripotent stem cells produce hyperphosphorylated Tau (AT8). Excessive expression of AT8 affects winding signals and nutrient transmission of neurons; Aβ 1-42 is the main component of amyloid accumulation; microtubule-associated protein (microtubule-associated protein 2, MAP2) is a marker of neurons which mainly maintains the stability of dendritic neurons; tubulin (neuron-specific class III β-tubulin, TuJ1) is also a marker of neurons.
# By genetic engineering, the four transcription factors Oct-4, Sox-2, c-Myc, and Klf-4 were delivered into adult cells and reverse-transcribed the cells into induced pluripotent stem cells (iPSC) carrying trisomy 21(Ts21) gene mutation.
# [2] = tested on: PSEN-1, PSEN-2, Aβ1-42 and NICD in C6-C99 cells; experiment: Western blotting of amyloid-related proteins in C6-C99 cells; format: cell-based; settings: C6-C99 cells
# Text: FIG. 3B to FIG. 3E are the quantitative results of the Western blotting analysis of PSEN-1, PSEN-2, β-amyloid 1-42 (Aβ1-42) and NICD in FIG. 3A, respectively (p*<0.05, p**<0.01). The C6-C99 cells used in FIGS. 3A to 3E are glioma cells having a fragment of human amyloid precursor protein (APP). This fragment is a peptide fragment with 99 amino acids (APP-C99), which can express large amounts of PSEN-1, PSEN-2, and Aβ 1-42 after activation by cumate.
# Western blotting is used to detect the expression levels of amyloid-related proteins, including PSEN-1, PSEN-2, and β-amyloid 1-42 (Aβ1-42), while simultaneously detect the expression level of Notch protein (Notch intracellular domain, NICD), which is an indicator of drug safety. If the Notch protein is not affected, then drug safety is indicated.
# APP-C99 was transfected into C6 cells with the C99 peptide through cumate-inducible system activation.
# [3] = tested on: miR-29b-2-5p and PSEN1 in the hippocampus of 3xTg AD mice; experiment: RT-qPCR of miR-29b-2-5p and PSEN1 in the hippocampus of 3xTg AD mice; format: in vivo
# Text: FIGS. 7E and 7F show the RT-qPCR analysis result of the expression levels of miR-29b-2-5p and PSEN1, respectively, in the hippocampus of 3xTg AD mice. n=—4.
# AD-3xTg transgenic mice are an animal model used to study Alzheimer's disease. The transgenic mice are genetically engineered to carry point mutations of human amyloid precursor protein (APP), microtubule-associated protein tau (MAPT P301L) and type I presenilin protein (PSEN-1). The AD-3xTg transgenic mice carrying Alzheimer's mutation genes affect the brain and produce symptoms, mainly involving amyloid aggregation in the hippocampus and cerebral cortex. […] The 3xTg mice have β-amyloid accumulation in the brain and have problems related to cognition.
# C6-C99 cells = experiment: Flow cytometry of C6-C99 cells (cumate-induced fluorescence); format: cell-based; settings: 100 μM n-BP
# Protocol: Red peak, fluorescence of C6-C99 cells without cumate activation (background). Green peak, with cumate. Blue peak, with n-BP.
# (§1) Then, C6-C99 cells were used to explore the effect of 100 μM n-butylidenephthalide (n-BP) on the expressions of miR-29b-2-5p, PSEN1, and Aβ1-42. […] Also shown in FIGS. 4G to 4I are the results of using miR-29b-2-5p inhibitor to evaluate whether n-BP inhibited PSEN1 and Aβ1-42 expression through miR-29b-2-5p. Specifically, miR-29b-2-5p inhibitor was transfected into C6-C99 cells and examined the inhibitory effect of n-BP treatment on PSEN1 and Aβ1-42 expression. It was observed that the addition of the miR-29b-2-5p inhibitor to C6-C99 cells abolished the 100 μM n-BP induced decrease in PSEN1 and Aβ1-42 expression.
# SH-SY5Y = experiment: Aβ1-42 poisoning experiment in SH-SY5Y cells (MTT); format: cell-based, human; settings: n-butylidenephthalide 100 μM, vitamin C 200 μM, alone or in combination, Aβ1-42 1 μM
# Text: Then, the cell viability is detected by a cell survival test using (3-(4,5-dimethylthiazol-2-yl)-2,5-diphenyltetrazolium bromide (MTT) assay.
# 3xTg AD mice = experiment: Morris water maze test in AD-3xTg mice; format: in vivo
# Protocol: Red dot, starting point of the swim; green dot, end point of the swim.
# N=4 for wild-type and 10 mg/kg donepezil-treated 3xTg mice. N=6 for vehicle-treated 3xTg mice, 60 mg/kg n-BP-treated 3xTg mice, and 120 mg/kg n-BP-treated 3xTg mice. *p-value<0.05, **p-value<0.01 (Student's t-test). […] After 4-12 months, the B6 (C57/BL6) control mice have no AP accumulation (Green color).
# The mice behavioral experiment using Morris water maze is a classical test to detect short-term memory and complex memory. Through its behavior, it can be determined whether there is a difference in memory after drug treatment. […] Two sessions were conducted on Day 1 as follows: (1) mice were placed in the swimming pool to adapt to the environment for a training duration of 120 seconds; (2) a hidden rest platform was added to the pool at a precise location in the northwest corner of the pool (blue diamond in the east; red circle in the west and yellow triangle in the south as shown in FIG. 7G) and the mice were allowed for to swim in the pool for a duration of another 120 seconds. If the rescue platform was not found by the mouse within the allocated time, the mouse was guided to the platform. The test for finding the rescue platform is carried out for the next four consecutive days, with each session lasting 90 seconds. The result is collected and analyzed.
# [4] = tested on: NICD, Aβ1-42 and PSEN1 in iPSC-derived human neurons; experiment: Western blot of NICD, Aβ1-42 and PSEN1 in iPSC-derived human neurons; format: cell-based; settings: 100 μM n-BP, 48 h
# Protocol: Because the Notch intracellular domain (NICD) is most relevant to the development of AD drugs, western blot analysis was conducted to explore the effect of 100 μM n-BP-induced inhibition of Notch cleavage in iPSC-derived human neurons and on the expressions of miR-29b-2-5p and PSEN1. […] The change in the expressions of miR-29b-2-5p, PSEN1, and Aβ1-42 was therefore consistent with those observed in n-BP-treated Ts-21 iPSCs.
# [5] = tested on: miR-29b-2-5p expression in C6-C99 cells; experiment: RT-qPCR of miR-29b-2-5p/miR-9-5p in C6-C99 cells; format: cell-based; settings: 100 μM n-BP
# Protocol: as §1
# [6] = hippocampal gyrus of AD-3xTg mice, 120 mg/kg orally, vs untreated
# [7] = hippocampus of 3xTg AD mice, control 100%
smiles,measurement,setting,value
"CCCC=C1OC(=O)c2ccccc21 [n-BP, n-butylidenephthalide]",Aβ aggregation,[1]; FIG. 5B,effectively reduces
same,Phosphorylation of Tau protein,[1]; FIG. 5B,effectively reduces
same,Expression level of miRNA-29b-2-5p,[1]; FIG. 5C,increased significantly
same,Aggregation of Aβ 1-42 (protein levels),[1]; FIG. 5D,decreased
same,Protein expression of phosphorylated Tau protein,[1]; FIG. 5D,decreased
same,Aβ1-42 expression,[2]; 100 μM n-BP,40.53%±28.46%
same,PSEN1 expression,[2]; 100 μM n-BP,37.33%±23.1%
same,Aβ1-42 expression,"[2]; 100 μM, FIG. 3",significantly reduced
same,"Notch protein (NICD) expression, indicator of drug safety","[2]; 100 μM, FIG. 3",not affected
same,PSEN-1 expression,"[2]; 100 μM, FIG. 3",significantly reduced
same,PSEN-2 expression,"[2]; 100 μM, FIG. 3",significantly reduced
same,Gene expression level of PSEN-1,[3]; [6],decreased expression levels
same,Gene expression level of miRNA-29b-2-5p,[3]; [6],higher expression levels
same,PSEN1 expression,[3]; [7],26.26%±27.75%
same,miR-29b-2-5p expression,[3]; [7],188.58%±55.09%
same,Cumate expression / fluorescence of C6-C99 cells,C6-C99 cells,did not affect; also recorded: does not affect the fluorescence of C6-C99
same,"Cell survival, protection against Aβ1-42 damage",SH-SY5Y,has an effect on increasing cell survival
same,Movement trajectory,3xTg AD mice; 120 mg n-BP/kg vs 60 mg n-BP/kg,shorter movement trajectory
same,Locating and arriving at the resting platform,"3xTg AD mice; 120 mg/kg n-BP, donepezil as positive control",able to quickly locate and arrive at the resting platform
same,Finding the rest platform after training,3xTg AD mice; 60 and 120 mg n-BP/kg,could find the rest platform after training
same,Time required to find the platform,"3xTg AD mice; Day 5, 120 mg/kg n-BP, 10 mg donepezil/kg, vs untreated 3xTg mice",significantly lower
same,Aβ1-42 protein expression,[4],35.02%±24.39%
same,Expression of proteins in NICD,[4],no change
same,PSEN1 protein expression,[4],65.94%±4.52%
same,miR-29b-2-5p expression,[5],358.95%±24.74%
